This is an account of results in patent US20220325235A1, “CELL CULTURE METHODS” (The University of Massachusetts, priority 2019, published 2022).

One test relates to CHO-K1 cell line. Nature of the test: Fed-batch spiking test: IgG glycan profile by HPLC with Glycan Column. It is filed as cell-based, Chinese hamster. How it is done:
Industrial standard Fed-batch process: CHO-K1 cell line is cultured in corresponding media. Feed for 14 days, with 6 mM glutamine supplement on the inoculation day. The working volume is 30 mL in 125 mL shake flasks, and the inoculation cell density is 0.5 million cells/mL. The parameters for the shaking incubator are: 125 RPM, and 5% CO2. The feeding strategy is 10% corresponding feed everyday starting from day 3 to day 13.
In the standard industrial fed-batch process, cells were exposed to the inhibitors for a long period of time. This experiment mimics the therapeutic antibody production process, and spikes the inhibitors at their end-of-culture cellular concentration. ICA was confirmed as a known inhibitor and was used as a positive inhibitor control. Mixture condition excluded ICA and included AA, HICA, CMP, MSA, TRI, NAP. The process lasted for 14 days, and starting from day 6, the cell density under the inhibitor conditions were lower than the negative control batch.
IgG titer was measured by HPLC with a Protein A column. Product quality was quantified by the IgG glycan profile, which was measured by HPLC with a Glycan Column.

The test system of a further test is CHO cells. Nature of the test: Batch culture spiking of metabolites at end-of-culture concentration: cell density. Format: cell-based, Chinese hamster. The following applies: 6 days, spiked at end-of-culture concentration. The method, then: CHO K-1 industrial standard batch process: NIH CHO-K1 cell line is cultured for 6 days, with 6 mM glutamine supplement on the inoculation day. The working volume is 30 mL in 125 mL shake flasks, and the inoculation cell density is 0.5 million cells/mL. The parameters for the shaking incubator are: 125 RPM, and 5% CO2.
Cells were exposed to the identified inhibitory metabolites of Table 1 at their end-of-culture concentration for 6 days in batch culture. […] All of the inhibitory metabolites decreased the antibody productivity (FIG. 4).

Entries after “also recorded” stand apart in the source; their conditions may differ.

On to `O=C(O)C=C(CC(=O)O)C(=O)O` [AA, aconitic acid], for which, in the test with CHO-K1 cell line, the “Impact on G1F formation compared to control group” value is given as “higher impact”. In addition, the “Impact on G2F formation compared to control group” value in the test with CHO-K1 cell line (Day 14) is recorded as “totally inhibits; also recorded: G2F was not formed”. Further, the “Cell density compared with the control group” value with CHO cells was “lower cell density”.

Consider `Nc1ccn([C@@H]2O[C@H](COP(=O)(O)O)[C@@H](O)[C@H]2O)c(=O)n1` [CMP, cytidine monophosphate], for which, in the test with CHO-K1 cell line, the “Impact on G1F formation compared to control group” value was “higher impact”. Further, the “Cell density compared with the control group” value in the test with CHO cells is reported as “lower cell density”.

On to `CC(C)CC(O)C(=O)O` (stereo not drawn) [HICA, leucinic acid], for which, in the test with CHO-K1 cell line, the “Impact on G1F formation compared to control group” value is recorded as “higher impact”.

Take `O=C(O)c1c[nH]c2ccccc12` [ICA, indole-3-carboxylic acid, reference compound]: in the test with CHO-K1 cell line, the “Impact on G1F formation compared to control group” value is given as “higher impact”. For the same compound, the “Cell density compared with the control group” value in the test with CHO cells is on record as “lower cell density”.

Turning to `CC(CC(=O)O)C(=O)O` (stereo not drawn) [MSA, methylsuccinic acid], the “Impact on G1F formation compared to control group” value with CHO-K1 cell line is recorded as “higher impact”.
